Assay results as given in ChEMBL document CHEMBL6096719, “Kidney Targeting Smart Antibiotic Discovery: Multimechanism Pleuromutilins for Pyelonephritis Therapy” (J Med Chem, 2025).
The source made the active and inactive calls. The calls are words filed in the database; no cut-off is given here.

Legend:
[1] = molecular target: T1, Solute carrier family 22 member 2 (Homo sapiens, UniProt O15244); experiment: Inhibition of human OCT2 transfected in HEK293 cells assessed as decrease in intracellular ASP accumulation […] incubated for 10 mins followed by incubation with ASP for 5 mins by fluorescence based analysis; assay type: cell-based; settings: hek293, 0.25 h, time 15 min
T1 sequence (O15244 whole entry): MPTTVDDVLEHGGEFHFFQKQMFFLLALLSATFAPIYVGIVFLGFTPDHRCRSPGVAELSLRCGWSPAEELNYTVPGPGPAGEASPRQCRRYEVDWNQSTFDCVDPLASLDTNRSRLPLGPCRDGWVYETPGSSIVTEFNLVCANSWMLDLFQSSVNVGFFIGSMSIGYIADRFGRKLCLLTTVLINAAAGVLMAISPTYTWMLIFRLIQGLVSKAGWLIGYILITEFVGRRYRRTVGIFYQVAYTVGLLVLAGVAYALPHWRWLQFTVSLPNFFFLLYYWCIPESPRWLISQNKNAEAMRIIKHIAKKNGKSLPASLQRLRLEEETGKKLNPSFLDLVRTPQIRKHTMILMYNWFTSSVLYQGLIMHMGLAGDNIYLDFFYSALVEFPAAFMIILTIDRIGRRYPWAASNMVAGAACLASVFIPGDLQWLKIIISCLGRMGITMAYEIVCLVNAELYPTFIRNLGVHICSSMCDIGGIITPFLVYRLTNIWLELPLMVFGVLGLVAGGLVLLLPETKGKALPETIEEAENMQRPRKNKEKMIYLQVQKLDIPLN

[2] = Cytotoxicity against human HepG2 cells assessed as reduction in cell viability incubated for 24 hrs by CCK8 assay; assay type: toxicity, cell-based
[3] = molecular target: T1, Solute carrier family 22 member 2; experiment: Substrate activity at human OCT2 transfected in HEK293 cells assessed as increase in intracellular drug content at 100 uM measured after 5 mins; assay type: ADME, cell-based; settings: hek293, 5 min
[4] = molecular target: Voltage-gated inwardly rectifying potassium channel KCNH2 (Homo sapiens, UniProt Q12809); experiment: Inhibition of hERG expressed in HEK293 cells assessed as inhibition of tail current measured at holding potential of -80 mV by automated patch clamp analysis; assay type: toxicity, cell-based
Sequence of Voltage-gated inwardly rectifying potassium channel KCNH2 (Q12809 whole entry): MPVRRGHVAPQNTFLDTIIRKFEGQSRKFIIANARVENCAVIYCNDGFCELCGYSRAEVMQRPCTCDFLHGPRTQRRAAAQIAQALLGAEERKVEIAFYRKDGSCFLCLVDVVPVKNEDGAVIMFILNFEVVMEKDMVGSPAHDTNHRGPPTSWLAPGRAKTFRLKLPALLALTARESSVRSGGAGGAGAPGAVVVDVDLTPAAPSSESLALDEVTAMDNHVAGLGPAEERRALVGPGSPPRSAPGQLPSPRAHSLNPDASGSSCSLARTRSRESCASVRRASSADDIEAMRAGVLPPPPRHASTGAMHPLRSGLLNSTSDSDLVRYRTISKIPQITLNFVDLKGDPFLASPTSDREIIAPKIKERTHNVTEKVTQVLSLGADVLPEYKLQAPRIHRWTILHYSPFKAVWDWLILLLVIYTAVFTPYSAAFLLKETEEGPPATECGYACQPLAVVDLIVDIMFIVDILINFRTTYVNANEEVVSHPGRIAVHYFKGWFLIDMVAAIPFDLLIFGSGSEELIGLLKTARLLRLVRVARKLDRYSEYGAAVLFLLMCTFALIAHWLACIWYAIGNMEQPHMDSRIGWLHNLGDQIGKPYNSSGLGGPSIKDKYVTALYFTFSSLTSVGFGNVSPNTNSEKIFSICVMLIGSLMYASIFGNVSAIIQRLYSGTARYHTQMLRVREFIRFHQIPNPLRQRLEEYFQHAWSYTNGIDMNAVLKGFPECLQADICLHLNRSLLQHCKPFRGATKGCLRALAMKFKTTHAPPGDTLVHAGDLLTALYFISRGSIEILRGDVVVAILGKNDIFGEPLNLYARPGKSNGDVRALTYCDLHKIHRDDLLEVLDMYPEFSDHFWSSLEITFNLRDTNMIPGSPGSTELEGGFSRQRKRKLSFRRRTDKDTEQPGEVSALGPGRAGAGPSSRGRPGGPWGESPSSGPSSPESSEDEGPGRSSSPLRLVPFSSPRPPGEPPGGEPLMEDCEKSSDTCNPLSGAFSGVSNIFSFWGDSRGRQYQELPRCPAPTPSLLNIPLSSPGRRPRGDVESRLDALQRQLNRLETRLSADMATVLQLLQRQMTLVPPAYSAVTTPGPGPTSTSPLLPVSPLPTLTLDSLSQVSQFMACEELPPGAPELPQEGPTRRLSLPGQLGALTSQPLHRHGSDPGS

[5] = test system: Mesomycoplasma hyopneumoniae; experiment: Anti-mycoplasma activity against Mycoplasma hyopneumoniae J NCTC10110 assessed as inhibition of bacterial growth incubated for 6 to 7 days by broth microdilution method; assay type: functional; settings: time 6-7 day
[6] = Half-life in Sprague-Dawley rat at 10 mg/kg, po; assay type: ADME, organism-based; settings: in vivo
Staphylococcus aureus [7] = experiment: Antibacterial activity against methicillin-resistant Staphylococcus aureus ATCC33591 infected in systemic intraperitoneal infection Kunming mouse model assessed as decrease in inflammation and neutrophil infiltration in kidney at 5 mg/kg, ip treated at 1 hr post-infection and measured after 7 days by Hematoxylin-Eosin staining based analysis; assay type: functional, organism-based; settings: time 7.0 day
Escherichia coli [8] = experiment: Antibacterial activity against Escherichia coli ATCC25922 infected in pyelonephritis C57BL/6 mouse model assessed as recovery of neutrophils count in blood at 3 to 10 mg/kg, iv qd for 3 days administered at 2 days post-infection; assay type: functional, organism-based; settings: dose 3-10 mg/kg, time 3.0 day
Staphylococcus aureus [9] = experiment: Antibacterial activity against methicillin-resistant Staphylococcus aureus ATCC 33591 assessed as inhibition of bacterial growth incubated for 24 hrs by broth microdilution method; assay type: functional
Staphylococcus aureus [10] = experiment: Antibacterial activity against methicillin-resistant Staphylococcus aureus ATCC33591 infected in systemic intraperitoneal infection Kunming mouse model assessed as decrease in inflammation, neutrophil infiltration, alveolar structure destruction, leukocyte infiltration, interstitial thickening in lungs at 5 mg/kg, ip treated at 1 hr post-infection and measured after 7 days by Hematoxylin-Eosin staining based analysis; assay type: functional, organism-based; settings: time 7.0 day
Escherichia coli [11] = experiment: Antibacterial activity against Escherichia coli ATCC25922 infected in pyelonephritis C57BL/6 mouse model assessed as decrease in MPO activity in kidney at 3 to 10 mg/kg, iv qd for 3 days administered at 2 days post-infection; assay type: functional, organism-based; settings: dose 3-10 mg/kg, time 3.0 day
Staphylococcus aureus [12] = experiment: Antibacterial activity against methicillin-resistant Staphylococcus aureus 596 assessed as inhibition of bacterial growth incubated for 24 hrs by broth microdilution method; assay type: functional
Staphylococcus aureus [13] = experiment: Antibacterial activity against methicillin-resistant Staphylococcus aureus ATCC 43300 assessed as inhibition of bacterial growth incubated for 24 hrs by broth microdilution method; assay type: functional
[14] = Half-life in Sprague-Dawley rat at 5 mg/kg, iv; assay type: ADME, organism-based; settings: in vivo
Staphylococcus aureus [15] = experiment: Antibacterial activity against methicillin-resistant Staphylococcus aureus ATCC33591 infected in systemic intraperitoneal infection Kunming mouse model assessed as decrease in bacterial colonies in kidneys administered intraperitoneally at 1 hr post-infection and measured after 7 days; assay type: functional, organism-based; settings: dose 5-20 mg/kg, route ip, time 7.0 day
Cell membrane [16] = experiment: Disruption of cell membrane in methicillin-resistant Staphylococcus aureus ATCC33591 assessed as dissipation of membrane potential at 0.125 to 0.5 ug/ml incubated for 30 mins by DiBAC4(3) probe based fluorescence spectrophotometry; settings: dose 0.125-0.5 µg/ml
Cell membrane [17] = experiment: Disruption of cell membrane in methicillin-resistant Staphylococcus aureus ATCC33591 assessed as increase in extracellular ATP content at 0.125 to 0.25 ug/ml incubated for 30 mins by luminescence based analysis; settings: dose 0.125-0.25 µg/ml
Staphylococcus aureus [18] = experiment: Antibacterial activity against methicillin-resistant Staphylococcus aureus ATCC33591 infected in systemic intraperitoneal infection Kunming mouse model assessed as increase in animal's survival rate at 5 mg/kg, ip treated at 1 hr post-infection and measured on day 7; assay type: functional; settings: ATCC33591, 168 h, time 7 day
Acinetobacter baumannii [19] = experiment: Antibacterial activity against carbapenem-resistant Acinetobacter baumannii 882 assessed as inhibition of bacterial growth incubated for 24 hrs by broth microdilution method; assay type: functional
Acinetobacter baumannii [20] = experiment: Antibacterial activity against Acinetobacter baumannii ATCC 19606 assessed as inhibition of bacterial growth incubated for 24 hrs by broth microdilution method; assay type: functional
[21] = Tmax in Sprague-Dawley rat at 10 mg/kg, po; assay type: ADME, organism-based; settings: in vivo
Cell membrane [22] = experiment: Disruption of cell membrane in Escherichia coli ATCC25922 assessed as decrease in intracellular ATP content at 0.125 to 0.25 ug/ml incubated for 30 mins by luminescence based analysis; settings: dose 0.125-0.25 µg/ml
Chlamydia pneumoniae = experiment: Anti-mycoplasma activity against Chlamydophila pneumoniae CWL-029 VR1310 assessed as inhibition of bacterial growth incubated for 3 to 5 days by broth microdilution method; assay type: functional; settings: time 3-5 day
Enterococcus = experiment: Antibacterial activity against vancomycin-resistant Enterococcus 80 assessed as inhibition of bacterial growth incubated for 24 hrs by broth microdilution method; assay type: functional
[23] = test system: Mycoplasmoides gallisepticum; experiment: Anti-mycoplasma activity against Mycoplasma gallisepticum NCTC10115 assessed as inhibition of bacterial growth incubated for 3 to 5 days by broth microdilution method; assay type: functional; settings: time 3-5 day
Escherichia coli [24] = experiment: Antibacterial activity against Escherichia coli ATCC25922 assessed as post-antibiotic effect at 0.25 ug/ml incubated for 1 hr followed by washing and incubation in MHB medium for 10 hrs and later cultured on agar plate for overnight; assay type: functional; settings: dose 0.25 µg/ml
Cell membrane [25] = experiment: Disruption of cell membrane in methicillin-resistant Staphylococcus aureus ATCC33591 assessed as decrease in intracellular ATP content at 0.125 to 0.25 ug/ml incubated for 30 mins by luminescence based analysis; settings: dose 0.125-0.25 µg/ml

**Q.** For `C=C[C@]1(C)C[C@@H](OC(=O)CSc2nc3cc[n+](Cc4ccc(C)cc4)cc3[nH]2)[C@]2(C)[C@H](C)CC[C@]3(CCC(=O)[C@H]32)[C@@H](C)[C@@H]1O.[Br-]`, which “inhibition (INH)” value [1] is on record?
**A.** Not_active

**Q.** And the CC50 at 24 h [2]?
**A.** > 100 µM

**Q.** What about the Activity [3] of the same molecule?
**A.** Active

**Q.** And the IC50 [4]?
**A.** 71.5 µM

**Q.** What about the MIC [5] of the same molecule?
**A.** < 0.04 µg/mL

**Q.** And the half-life [6]?
**A.** 1.57 h

**Q.** What about the Activity (Staphylococcus aureus [7]) of the same molecule?
**A.** Active; Nearly Restoration Of Normal Histology Observed

**Q.** What about the Activity (Escherichia coli [8]) of the same molecule?
**A.** Active

**Q.** And the MIC (Staphylococcus aureus [9])?
**A.** < 1 µg/mL

**Q.** And the Activity (Staphylococcus aureus [10])?
**A.** Active; Nearly Restoration Of Normal Histology Observed

**Q.** What about the Activity (Escherichia coli [11]) of the same molecule?
**A.** Active

**Q.** What about the MIC (Staphylococcus aureus [12]) of the same molecule?
**A.** 2 µg/mL

**Q.** And the MIC (Staphylococcus aureus [13])?
**A.** < 1 µg/mL

**Q.** And the half-life [14]?
**A.** 1.17 h

**Q.** And the Activity (Staphylococcus aureus [15])?
**A.** Active; Superior Efficacy Compared To Valnemulin Observed

**Q.** What about the Activity (Cell membrane [16]) of the same molecule?
**A.** Active

**Q.** And the Activity (Cell membrane [17])?
**A.** Active

**Q.** And the survival at 5 mg/kg (Staphylococcus aureus [18])?
**A.** 80%

**Q.** What about the MIC (Acinetobacter baumannii [19]) of the same molecule?
**A.** 4 µg/mL

**Q.** And the MIC (Acinetobacter baumannii [20])?
**A.** < 1 µg/mL

**Q.** And the Tmax [21]?
**A.** 0.5 h

**Q.** And the Activity (Cell membrane [22])?
**A.** Active

**Q.** What about the MIC (Chlamydia pneumoniae) of the same molecule?
**A.** < 0.04 µg/mL

**Q.** What about the MIC (Enterococcus) of the same molecule?
**A.** 4 µg/mL

**Q.** What about the MIC [23] of the same molecule?
**A.** < 0.04 µg/mL

**Q.** And the PAE (Escherichia coli [24])?
**A.** 1.78 h

**Q.** And the Activity (Cell membrane [25])?
**A.** Active
